Each structure is given as a SMILES string.

Experiment [1] concerns ATF6. Briefly: ERSE ATF6-luciferase assay in presence of Tg-induced ER stress (U2-OS ATF6 TRE-luciferase reporter cells). The following applies: Homo sapiens, U2OS, 8 h, Tg only = 100%. In kind it is cell-based, Human. On the procedure: (§1) To understand how exemplary compounds of the invention modulate the activity of ATF6 in absence or presence of endoplasmic reticulum (ER) stress, a Human bone osteosarcoma (U2-OS)-based TRE-luciferase reporter stable cell line was generated to determine the modulation of transcription of ATF6 target genes.
(§2) U2-OS cells were obtained from the American Type Culture Collection (ATCC HTB-96, ATCC Manassas, Va.) and were cultured with growing medium containing Dulbecco's Modified Eagle's Medium (DMEM) (Cat. No.: SH30023.02, HyClone) supplemented with fetal bovine serum (FBS) 10% (Cat. No.: 16000044, Gibco) and 1% penicillin-streptomycin antibiotic cocktail (Cat. No.: SV30010, Hyclone).
(§3) Cignal Lenti ATF6 luc reporter (Qiagen #CLS-6031L) was used to produce a stable cell line in U2-OS cells (U2-OS ATF6 TRE-luciferase reporter). The lenti ATF6 reporter is a preparation of replication incompetent, VSV-g pseudotyped lentivirus particles expressing the firefly luciferase gene under the control of a minimal (m)CMV promoter and tandem repeats of the ATF6 transcriptional response element (TRE). The number of response elements as well as the intervening sequence between response elements has been experimentally optimized to maximize the signal to noise ratio.
(§4) Exemplary compounds of the invention and reference compounds were prepared from powder as 10 mM stock solutions in dimethyl sulfoxide (DMSO; Cat. No. #D2650, Sigma Aldrich) and stored at −80° C. in presence of N2 neutral atmosphere.
(§5) For the primary screening, 40,000 U2-OS ATF6 TRE-luciferase reporter cells were plated in poly-D-lysine (Cat. No.: P2636, Sigma) pre-coated white 96-well plates (Thermo Scientific Nunc #136101) with 100 μL of growing medium. Cells were incubated in humidified chambers for 24 hr.
For testing exemplary compounds in presence of ER-stress, cells were pre-treated for 30 min with 50 μL growing medium containing either vehicle (DMSO), 1 or 10 μM test compound. After this pre-incubation, 50 μL of a solution containing 0.2 μM of the ER stress-inducer thapsigargin (Tg) was added to the appropriate wells. The Tg solution also contains vehicle or test compounds at 1 or 10 μM as indicated. The final concentration of DMSO in each well was kept at 0.3%. Plates were incubated for 8 hr in humidified chambers.
After the 8 hr incubation, plates were cooled down to room temperature for 10 min prior to the luciferase assays. Luciferase reactions were performed using Luciferase Assay System (Cat. No.: E4550, Promega). Briefly, each well was washed with 100 μl of PBS 1× and, then, 20 μl of lysis reagent was added into each well. Plates were shaken for 10 min and, then, 50 μl of Luciferase Assay Reagent was added to each well. Luminescence was determined by integration of 1 s with a gain of 110 in a Synergy 4 Microplate reader. All measurements were carried out in triplicate.
The average activity determined from the wells containing vehicle only (DMSO, 0% of ATF6 activity) was used as blank and subtracted from the rest of measurements. The average activity determined from the wells containing Tg only was used as 100% of ATF6 activity. The percentage of modulation of exemplary compounds was calculated by normalizing values to potential maximal activation with Tg.
ATF6 activities of exemplary compounds at 1 and 10 μM in presence Tg-induced ER stress tested in the U2-OS ATF6 TRE-luciferase reporter cells were determined and are shown in Table 2.
In general terms: A reporter such as luciferase makes a cellular process visible.

For experiment [2], the system named is ATF6. As to the kind of experiment: ERSE ATF6-luciferase assay in absence of ER stress (U2-OS ATF6 TRE-luciferase reporter cells). In kind it is cell-based, Human. The following applies: 8 hr, normalized to maximal activation with Tg. On the procedure: as §1, §2, §3, §4, §5
For testing exemplary compounds in absence of ER-stress, cells were treated for 8 hr with 100 μL growing medium containing either vehicle (DMSO), 1 or 10 μM test compound or 0.1 μM Tg. The final concentration of DMSO in each well was kept at 0.3%. Plates were incubated in humidified chambers.
After 8 hr of incubation, plates were cooled down to room temperature for 10 min prior to luciferase assays. Luciferase reactions were performed as above. Luminescence was read by integration of 1 s with a gain of 110 in a Synergy 4 Microplate reader. All measurements were carried out in triplicate.
The average activity determined from the wells containing vehicle only (DMSO, 0% of ATF6 activity) was used as blank and subtracted from the rest of measurements. The percentage of modulation of exemplary compound was calculated by normalizing values to potential maximal activation with Tg.
ATF6 activities of exemplary compounds at 1 and 10 μM in absence of Tg-induced ER stress in the U2-OS ATF6 TRE-luciferase reporter cells were determined and are shown in Table 3.

With `Cc1c(NC(=O)c2cc(-c3ccco3)on2)cnn1C(C)c1c(Cl)cccc1Cl` (stereo not shown) [Compound 1-22, N-(1-(1-(2,6-dichlorophenyl)ethyl)-5-methyl-1H-pyrazol-4-yl)-5-(furan-2-yl)isoxazole-3-carboxamide], the activity at 1 µM in the experiment on ATF6 [1] (1 μM test compound) is 75 to 100%. For the same molecule, in the experiment with ATF6 [1] (10 μM test compound), the activity at 10 µM was 100 to 125%. Also, the “ATF6 activity @ 1 μM- No Tg [%]” value in the experiment with ATF6 [2] (1 μM test compound) is reported as “+ (+ refers to 0% < % activity < 25% at 1 or 10 μM test compound)”. In addition, in the experiment on ATF6 [2] (10 μM test compound), the “ATF6 activity @ 10 μM- No Tg [%]” value was “+ (+ refers to 0% < % activity < 25% at 1 or 10 μM test compound)”.

The values are drawn from patent US20220389001A1, “ATF6 MODULATORS AND USES THEREOF” (Praxis Biotech LLC, priority 2019, published 2022).
